According to PMC3938723, “Learning from Host-Defense Peptides: Cationic, Amphipathic Peptoids with Potent Anticancer Activity” (PLoS ONE, 2014):
Non-standard residues stand in square brackets, D forms with d. Residues, ends and D or L forms follow the SMILES beside them. Nspe = C[C@H](NCC(=O)O)c1ccccc1; Nlys = NCCCCNCC(=O)O

Experiments:
mice = assay: Acute toxicity observation in xenograft mice; type: in vivo; details: intratumor injections ~1 mg/kg three times a week, xenograft NSG mice
Description: 80,000 cells from a dissociated second generation metastatic breast cancer tumor were suspended in Medium 199 containing 25% Matrix Matrigel (Becton Dickinson 354248) and injected into the mammary fat pad of 4–8 week old NOD.Cg-Prkdc^scid Il2rg^tm1Wjl/SzJ (NSG) mice. After two weeks, 100 µl PBS containing 110 µM peptoid 1 or control peptide was injected into the mammary fat pad three times a week, roughly at a dose of 1 mg/kg. Tumor volumes were determined using direct caliper measurements following […] of treatment.
Human breast cancer cells were implanted in the mammary fat pad of immunocompromised mice.

[1] = Analytical RP-HPLC elution as relative measure of molecular hydrophobicity; type: physicochemical; details: percentage of acetonitrile at elution, analytic RP-HPLC, C18 column, linear water/acetonitrile (0.1% trifluoroacetic acid) gradient 5%-95% acetonitrile over 30 min
Excerpt: Peptoids were synthesized using an ABI 433A peptide synthesizer (Applied Biosystems, Inc.) on Rink amide MBHA resin (EMD Biosciences, Gibbstown, NJ) using the submonomer protocol, [24]. Briefly, the amine on the nascent chain is bromoacetylated or chloroacetylated followed by SN2 displacement of bromide or chloride by a primary amine to form the side chain. Resin-bound peptoids were then exposed to a mixture of trifluoroacetic acid (TFA): triisopropylsilane: water (95∶2.5∶2.5, volume ratio) for 10 minutes to cleave peptoids from the resin. Crude peptoids were purified by reversed-phase high performance liquid chromatography (RP-HPLC) (Waters Corporation) using a C18 column and a linear acetonitrile/water gradient. A final purity >95% as measured by analytical RP-HPLC (Waters Corporation) was achieved, and the identity of each peptoid was confirmed using electrospray ionization mass spectrometry (ESI/MS). Pexiganan was synthesized by standard Fmoc chemistry on an ABI 433A peptide synthesizer ([…]). Unless indicated otherwise, all reagents were purchased from Sigma Aldrich (St. Louis, MO). Among the submonomers used, Nspe was derived from (S)-N-(1-phenylethyl)amine; Npm from benzylamine ([…]); NHis from histamine (2-[4-imidazolyl]ethylamine); NLeu from isobutylamine; NLys from N-tert-butoxycarbonyl-1,4-butanediamine (CNH Technologies, MA). Guanidinylation of NLys was carried out according to the reported procedure. When NHis was used in the peptoid sequence, chloroacetic acid was used. 5(6)-Carboxyfluorescein was used to label the N-terminus of peptoid 1 [28].
Peptoids were utilized herein as a peptidomimetic scaffold to capture the cationic, amphipathic nature of anticancer peptides, as well as to improve molecular stability and to increase chemical diversity. The design of anticancer peptoids were derived from previous antimicrobial peptoids and were further optimized hererin to improve the activity and selectivity of peptoids against anionic membranes, [24], [25]. […] Several novel variants were designed based on peptoid 1 but with different charges, amphipathicity, length, and helicity to change their activity or selectivity. The sequences of these variants, the solvent composition at RP-HPLC elution as a relative measure of molecular hydrophobicity, molecular net charges and their charge-to-length ratio are summarized in Table 1. […] Pexiganan, a clinically-relevant peptide analog of magainin 2 which was developed for topical treatment for diabetic foot infection, and LL-37, the only known human cathelicidin which is a non-selective antimicrobial peptide, were also tested for comparison.

OVCAR3 (ovarian cancer) = assay: MTS cell viability assay, OVCAR3; type: cell-based; details: 72 h
Description: (§1) MCF-7, MCF-7/TxT50 and OVCAR-3 (available in ATCC) were kindly provided by Professor Branimir Sikic's lab at Stanford University, and were cultured in McCoy's 5A media (GIBCO) with 10% FBS and antibiotics. Primary dermal fibroblasts were gifts from Lifeline Cell Technology and were cultured <6 passages according to the protocol Lifeline provides. All the cells were cultured in cell incubators (Thermo Scientific) at 37°C with 5% CO2.
(§2) This assay is a colorimetric method for determining the number of viable cells in proliferation. Aliquots of 100 µl media containing 1×10^4 cells were distributed into each well of a 96-well plate (BD Falcon). The following day, when cell density reaches about ∼40% confluency, the cell media were removed and replaced with serial dilutions of peptoid stocks in culturing media. For peptoid dilutions, peptoid stocks were initially diluted in media at 100 µM and then diluted by half in series using a multichannel pipette, and maintained in 100 µl media for each concentration with triple repeats. After peptoid solutions were transferred onto cells in 96-well plates, cells were incubated at 37°C for certain time periods. Then 20 µl of the CellTiter 96 Aqueous Non-Radioactive cell proliferation assay (Promega) reagent which contains a tetrazolium compound, [3-(4,5-dimethylthiazol-2-yl)-5-(3-carboxymethoxyphenyl)-2-(4-sulfophenyl)-2H-tetrazolium, inner salt; MTS(a)], was added to each well and cells were further incubated for 2 h to metabolize. The absorbance of formazan products were measured at 490 nm in a microplate reader (Molecular Devices). Percentage of cell viability = (A -A testblank)/(A control -A blank)×100, where A is the absorbance of the test well and A control the average absorbance of wells with cells not treated with peptoids. A testblank (media, MTS, and diluted peptoids) and A blank (media and MTS) were background absorbances measured in the absence of cells.
(§3) The activity and selectivity of these peptoids against cancer cells were evaluated in vitro. Their cytotoxicity was tested in three cancer cell lines, MCF-7 (human breast cancer), LNCaP (human prostate cancer), and OVCAR-3 (human ovarian cancer). To estimate the selectivity of these peptoids in vitro, hemolytic activities of some peptoids were cited from previously published work (Table 2 **column), and the MRC-5 cell line (human fibroblasts derived from fetal lung tissues) and primary dermal fibroblasts were also tested as normal cell controls. Briefly, cells were treated with peptoids diluted in culturing media for certain time periods, and then cell viability was measured via MTS assays.

LNCaP (prostate cancer) = assay: MTS cell viability assay, LNCaP; type: cell-based; details: 72 h
Description: as §2, §3

[2] = test system: MRC-5 (fetal lung fibroblast); assay: MTS cell viability assay, MRC-5; type: cell-based; details: 72 h
Description: as §1, §2, §3

[3] = test system: Primary dermal fibroblast; assay: MTS cell viability assay, primary dermal fibroblasts; type: cell-based; details: 72 h
Description: as §1, §2, §3

MCF-7 cells = assay: Apoptotic DNA ladder assay; type: cell-based, human; details: 24 h treatment
MCF-7 (breast cancer) = assay: MTS cell viability assay, MCF-7; type: cell-based; details: 72 h
Description: as §1, §2, §3

C[C@@H](c1ccccc1)N(CC(N)=O)C(=O)CN(C(=O)CN(CCCCN)C(=O)CN(C(=O)CN(C(=O)CN(CCCCN)C(=O)CN(C(=O)CN(C(=O)CN(CCCCN)C(=O)CN(C(=O)CN(C(=O)CNCCCCN)[C@@H](C)c1ccccc1)[C@@H](C)c1ccccc1)[C@@H](C)c1ccccc1)[C@@H](C)c1ccccc1)[C@@H](C)c1ccccc1)[C@@H](C)c1ccccc1)[C@@H](C)c1ccccc1 [Peptoid 1, H-(NLys-Nspe-Nspe)4-NH2] (H-[Nlys][Nspe][Nspe][Nlys][Nspe][Nspe][Nlys][Nspe][Nspe][Nlys][Nspe][Nspe]-NH2)
acute side effects in mice (mice): without causing any obvious acute side effects | HPLC elution [1]: 65.1 % ACN | LC50 OVCAR3 (ovarian cancer) (OVCAR3 (ovarian cancer)): 6 µM | LC50 LNCaP (prostate cancer) (LNCaP (prostate cancer)): 5 µM | LC50 MRC-5 (fetal lung fibroblast) [2]: 8 µM | LC50 Primary dermal fibroblast [3]: 8 µM | typical apoptotic DNA ladders (MCF-7 cells): not observed | LC50 MCF-7 (breast cancer) (MCF-7 (breast cancer)): 5 µM
